Columns and labels:
WIL-FL [1] = molecular target: T1, WIL-FL (Homo sapiens, UniProt P01721); assay: Fluorogenic coumarin titration; type: binding; details: 0.05 in buffer
[2] = test system: WIL-FL and JTO-FL variants with F98D mutation; assay: Fluorogenic coumarin titration, F98D variants; type: binding, human; details: 1 at 1 μM; presence or absence of the C214 inter-chain disulfide bond
Procedure: (§1) Fluorogenic coumarin titration. LCs were concentrated to 200 μM in centrifugal concentrators with a 10 kDa membrane, unless the available material was limiting. […] Fluorescence of 1 was measured on a Gemini plate reader (Molecular Devices) using an excitation wavelength of 373 nm and emission wavelength of 445 nm. Data were normalized platewise to the plateau fluorescence value for WIL-FL to calculate the fraction of 1 bound.
To further test the hypothesis that 1 binds at the interface between the V-domains, we measured binding of 1 to WIL-FL and JTO-FL variants with mutations designed to disrupt the dimer (22). The F98D mutation, which disrupts the V-domain-V-domain interface, rendered binding of 1 (1 μM) undetectable in the presence or absence of the C214 inter-chain disulfide bond (FIG. 2d, right panel).

[3] = test system: κ1-33 LCs (AL12-FL, κ I O18/O8-FL); assay: Fluorogenic coumarin titration, κ1-33 LCs; type: binding, human; details: 1 at 1 μM
Procedure: as §1
Of the two classes of human LCs, λ and κ, λ LCs are more commonly observed in AL, but a fraction of patients secrete κ1-33 LCs (12, 33). […] Recombinant expression of these κ1-33 LCs using a similar protocol to that used for λ6-57 LCs yielded both monomeric and dimeric LCs, as shown by SV-AUC (SI Appendix FIG. S7). […] Binding of an excess of κ1-33 LCs (20 μM) to 1 (1 μM) afforded FL LC•1 fluorescence (FIG. 2f, inset).

JTO-V [4] = molecular target: T2, JTO-V (Homo sapiens, UniProt P01721); assay: NMR ZZ-exchange experiment; type: binding; details: JTO-V2•1 complex
Procedure: Chemical exchange saturation transfer (CEST) experiments were acquired on WIL-V samples at 0.4 mM in the presence of 0.2 or 0.3 mM 1 using a multi-site excitation scheme (16). […] Further details of the analysis of these experiments are given in the Supplemental NMR Analysis described below.

WIL-FL [5] = molecular target: T1, WIL-FL; assay: Equilibrium unfolding, urea titration; type: biochemical; details: 1 at 100 μM or 5 at 50 μM, WIL-FL 5 μM; 1.4 M without ligand
Procedure: Equilibrium unfolding. WIL-FL (5 μM) was titrated against urea in 50 mM sodium phosphate buffer, pH 7.0, containing 50 μM 5 or 100 μM 1. After incubation overnight at 25° C., intrinsic tryptophan fluorescence emission spectra were measured using a Jasco 8600 fluorimeter (μex=280 nm, μem=300-420 nm). Average wavelength (also known as center of spectral mass) values were calculated using the equation: […]
λi and Ii are the are the wavelength and intensity at i, respectively. Average wavelength data were normalized for comparison. […] Midpoint urea concentrations were calculated by fitting the titration data to a 2-state unfolding equation: […]
x is the urea concentration (M), G is the free energy of unfolding (kJ mol^−1), m is the denaturant dependence of the unfolding reaction (kJ mol^−1 M^−1), R is the ideal gas constant, T is the temperature in K, a and c are the fluorescence of the folded and unfolded states, and b and d are the denaturant dependence of the fluorescence of the folded and unfolded states, respectively.

JTO-V [6] = molecular target: T2, JTO-V; assay: NMR native-state hydrogen-deuterium exchange; type: biochemical; details: 1 at 500 μM
Procedure: (§2) Native-state hydrogen exchange experiments were measured for WIL-V at 0.2 mM and JTO-V at 0.1 mM with or without 0.5 mM 1. […] Per-residue exchange rates k, were converted to free energies using the equation where krc are the residue-specific exchange rates of unprotected amides (18):
(§3) To verify that binding of 1 reduces LC unfolding under non-denaturing conditions, we measured residue-specific hydrogen-deuterium exchange rates by NMR of WIL-V and JTO-V (100 μM) in the absence of or with 1 (500 μM). These rates (the decrease in intensity of the HSQC peak associated with each amide) are converted to free energies that report on each amide's folding equilibrium by normalizing for the published exchange rates of amides in unstructured peptides.

WIL-V [7] = molecular target: T3, WIL-V (Homo sapiens, UniProt P01721); assay: NMR native-state hydrogen-deuterium exchange; type: biochemical; details: 1 at 500 μM
Procedure: as §2, §3

WIL-FL C214S = assay: Thioflavin T aggregation kinetics; type: biochemical, human; details: thioflavin T fluorescence
Procedure: Aggregation. WIL C214S was dialyzed into ddH2O and filtered. Each 1 ml reaction contained 10 μM LC, ddH2O, 1% DMSO or 200 μM 1 in 1% DMSO, 150 mM NaCl, and ABC buffer (20 mM sodium acetate, 20 mM boric acid, 20 mM sodium citrate, pH 5 with HCl). Components are listed in the order they were added.
Thioflavin T (ThT)-containing aggregation reactions were set up in 96-well plates with similar conditions used for the reactions described above, except each 100 μl reaction also contained 2 μM ThT. Aggregation was induced with shaking as previously described (4). In total, 21 replicates for both vehicle and 1, over four independent experiments (plates) were performed.
WIL-FL C214S aggregates upon vigorous stirring at or below pH 5 to form heterogenous aggregate structures. […] This may be because a given LC can stochastically form different aggregate structures with different kinetics.

WIL-V [8] = molecular target: T3, WIL-V; assay: Sedimentation velocity analytical ultracentrifugation (SV-AUC); details: LC 20 μM, 1 at 100 μM
Procedure: Analytical Ultracentrifugation (AUC). […] Sedimentation was measured by absorbance at 280 nm. Data were processed using SedFit (6).

[9] = test system: WIL-FL and JTO-FL with residue 46 mutated to leucine; assay: Fluorogenic coumarin titration, residue 46 to leucine variants; type: binding, human
Source text: The residues used by JTO to bind 1 are highly conserved (FIG. 3d). Residues Y36, P44, Y87 and F98 are present in 88, 99, 95 and 100% of all human germline LC genes, respectively, whereas T46 is only present in two functional germline genes.

[10] = test system: isolated V-domains from WIL, ALMC2 and 6aJL2; assay: Fluorogenic coumarin titration, isolated V-domains; type: binding, human; details: 1 at 1 μM
Procedure: as §1
(§4) A successful kinetic stabilizer should, but is not required to, bind to and stabilize patient LCs with a vast range of sequences (30, 31). To ask whether 1 can stabilize other FL LC sequences, we measured binding of 1 to three more recombinant λ6-57 FL LC disulfide-linked dimers: JTO-FL; ALMC2-FL, an AL-associated LC sequence derived from the ALMC2 cell line (32); and the germline sequence 6aJL2-FL.

LCs with C214S mutation = assay: Fluorogenic coumarin titration, C214S LCs; type: binding, human; details: 1 at 1 μM
Procedure: as §1, §4

Compound: CCN(CC)c1ccc2c(C)cc(=O)oc2c1 [Compound 1, 7-diethylamino-4-methylcoumarin]
- FP of 1 in the WIL-FL•1 complex (WIL-FL [1]): 0.35
- binding of 1 [2]: undetectable
- binding of 1 [3]: weaker than binding to λ6-57 LCs
- off-rate (JTO-V [4]): 57 ± 2 s⁻¹
- midpoint concentration of urea required to unfold the FL LC (WIL-FL [5]): 2.0 M
- average stabilization (free energy from exchange rates) (JTO-V [6]): 0.6 kcal/mol
- average stabilization (free energy from exchange rates) (WIL-V [7]): 0.6 kcal/mol
- rate of aggregation versus vehicle control (WIL-FL C214S): decreases the rate of aggregation significantly
- size distribution (SV-AUC) (WIL-V [8]): increase
- binding affinity of 1 [9]: slightly enhances the binding affinity
- affinity for 1 [10]: reduced affinity
- affinity of LCs for 1 (LCs with C214S mutation): reduces the affinity

— patent US11945806B2, “Stabilization of amyloidogenic immunoglobulin light chains” (The Scripps Research Institute, priority 2019, dated 2024)
